{"source": "patent US11498923B2", "about": "(Merck Sharp & Dohme Corp., priority 2017, dated 2022)", "data": [{"target": "T1, human A2a receptor (Homo sapiens, UniProt P29274)", "T1 construct": "purchased Perkin-Elmer RBHA2AM400UA; host or cells: HEK293 cells, used as a membrane preparation", "T1 sequence (P29274 whole entry)": "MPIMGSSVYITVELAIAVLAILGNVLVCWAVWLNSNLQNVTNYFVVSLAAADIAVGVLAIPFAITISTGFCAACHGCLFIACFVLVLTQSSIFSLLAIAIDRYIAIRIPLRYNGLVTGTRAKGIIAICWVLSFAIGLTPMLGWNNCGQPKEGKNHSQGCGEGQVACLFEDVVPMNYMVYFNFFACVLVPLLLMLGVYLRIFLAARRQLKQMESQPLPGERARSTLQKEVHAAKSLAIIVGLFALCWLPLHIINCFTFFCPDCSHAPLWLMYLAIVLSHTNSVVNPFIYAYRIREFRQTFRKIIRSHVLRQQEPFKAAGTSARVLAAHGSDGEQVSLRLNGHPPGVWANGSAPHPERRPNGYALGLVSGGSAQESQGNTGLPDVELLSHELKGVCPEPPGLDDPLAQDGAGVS", "assay": "A2a receptor competition binding assay (Scintillation Proximity)", "conditions": "A2a Ki, membranes from HEK293 cells expressing human A2a receptor; 0.5 nM tritiated ligand; Cheng-Prusoff", "procedure": "(§1) Binding affinities of compounds of the invention for the human A2a receptor were determined in a competition binding assay using Scintillation Proximity technology. Thus, 0.3 μg of membranes from HEK293 cells expressing the human A2a receptor were incubated with a compound of the invention at concentrations ranging from 3000 nM to 0.15 nM in a reaction mixture containing also 0.5 nM of a tritiated form of 5-amino-7-[2-phenethyl]-2-(furan-2-yl)-7H-pyrazolo[4,3-e][1,2,4]triazolo[1,5-c]pyrimidine (the tritiated compound) and 100 μg of wheat germ agglutin-coated yttrium silicate SPA beads for one hour at room temperature with agitation. The beads were then allowed to settle to the bottom of the wells for 1 hr, after which the membrane-associated radioactivity was determined by scintillation counting in a TopCount microplate reader. Ki values were determined using the Cheng-Prusoff equation.\n(§2) Summary of Materials and Methods Used in A2a Activity Determination:\n(§3) HEK293 cells expressing the human, rat, dog or monkey adenosine 2a receptor (Purchased from Perkin-Elmer #RBHA2AM400UA).\n(§4) The Tritiated compound was prepared according to published methods.\n(§5) Wheat germ agglutinin-coated yttrium silicate SPA beads (GE Healthcare #RPNQ0023). Dilute to 25 mg/ml in assay buffer.\n(§6) Assay Buffer was prepared using Dulbecco's calcium and magnesium free phosphate buffered saline+10 mMMgCl2\n(§7) Adenosine deaminase from calf intestine, 10 mg/2 ml (Roche #10 102 105 001).\n(§8) A2a antagonist standard (9-chloro-1-(2-furanyl)-[1,2,4]triazolo1,5-c]quinazolin-5-amine from Tocris Bioscience)\n(§9) Make eight 1:3 serial dilutions in 100% DMSO from a 3 mM compound stock\n(§10) Transfer 50 nl of compound into a 384-well OptiPlate (Perkin Elmer).\n(§11) Typically, final concentrations of compound used in the assay ranged from 3000 nM to 0.152 nM.\n(§12) Dilute a solution of the Tritiated compound to 1.25 nM in assay buffer. This is a 2.5× solution. The final concentration in the assay is 0.5 nM. Calculate the concentration by counting two 5 μl aliquots.\n(§13) Use 0.25 ug of membrane/well. Dilute membranes to 9.7 μg/ml in assay buffer. Treat with 20 ug/ml adenosine deaminase (ADA) for 15 minutes at room temperature to degrade endogenous adenosine.\n(§14) Use 100 μg/well wheat germ agglutinin-coated yttrium silicate SPA beads.\n(§15) Mix ADA-treated membranes and SPA beads together for 30 min prior to assay.\n(§16) To the Perkin-Elmer Optiplate-384 containing the compound titration add 20 μl of 2.5× solution of the Tritiated compound and 30 μl of the membrane-bead mixture. Incubate for one hour at room temperature with agitation.\n(§17) Include total binding (assay buffer+1% DMSO) and non-specific binding (CGS15943, 1 μM) wells.\n(§18) Allow the beads to settle for one hour.\n(§19) A curve fitting program (i.e., Prism, Activity Base, Chemcart) is used to determine the EC50. The Ki value is calculated using the Cheng-Prusoff equation. Ki=EC50/(1+(radioligand concentration/Kd))", "units": {"Ki": "nM"}, "values": [{"smiles": "COc1cccc2c1nc(N)n1cc(C(=O)N3CCC4(CC3)OCCO4)nc21", "note": "[Ex-188, (5-amino-7-methoxyimidazo[1,2-c]quinazolin-2-yl)(1,4-dioxa-8-azaspiro[4.5]decan-8-yl)methanone]", "Ki": 54}]}, {"target": "T1, human A2a receptor", "assay": "A2a receptor competition binding assay (Scintillation Proximity)", "conditions": "membranes from HEK293 cells expressing human A2a receptor; 0.5 nM tritiated ligand; Cheng-Prusoff; read-out: A2a Ki", "procedure": "as §1, §2, §3, §4, §5, §6, §7, §8, §9, §10, §11, §12, §13, §14, §15, §16, §17, §18, §19", "units": {"Ki": "nM"}, "values": [{"smiles": "Nc1nc2c(F)cccc2c2nc(Cc3ccccc3-c3ccccc3)cn12", "note": "[Ex-27, 2-([1,1′-biphenyl]-2-ylmethyl)-7-fluoroimidazo[1,2-c]quinazolin-5-amine]", "Ki": 2.6}, {"smiles": "Nc1nc2c(F)cccc2c2nc(CN3CCN(CCc4ccccc4)CC3)cn12", "note": "[Ex-113, 7-fluoro-2-((4-phenethylpiperazin-1-yl)methyl)imidazo-[1,2-c]quinazolin-5-amine]", "Ki": 76}, {"smiles": "COc1cccc2c1nc(N)n1cc(C(=O)N3CCCC(F)(F)C3)nc21", "note": "[Ex-241, (5-amino-7-methoxyimidazo[1,2-c]quinazolin-2-yl)(3,3-difluoropiperidin-1-yl)methanone]", "Ki": 13}, {"smiles": "Nc1nc2c(F)cccc2c2nc(COc3ccccc3)cn12", "note": "[Ex-146, 7-fluoro-2-(phenoxymethyl)imidazo[1,2-c]quinazolin-5-amine]", "Ki": 33}, {"smiles": "COc1cccc(C(=O)N2CCC(Cc3cn4c(N)nc5c(F)cccc5c4n3)CC2)n1", "note": "[Ex-325, (4-((5-amino-7-fluoroimidazo[1,2-c]-quinazolin-2-yl)-methyl)piperidin-1-yl)(6-methoxypyridin-2-yl)methanone]", "Ki": 54}, {"smiles": "COc1cccc2c1nc(N)n1cc(C(=O)N3CCO[C@@H](C)C3)nc21", "note": "[Ex-182, (S)-(5-amino-7-methoxyimidazo[1,2-c]quinazolin-2-yl)(2-methylmorpholino) methanone]", "Ki": 75}, {"smiles": "COc1cccc2c1nc(N)n1cc(C(=O)N3CCCC(F)(F)CC3)nc21", "note": "[Ex-178, (5-amino-7-methoxyimidazo[1,2-c]quinazolin-2-yl)(4,4-difluoroazepan-1-yl)methanone]", "Ki": 27}, {"smiles": "COc1cccc2c1nc(N)n1cc(C(=O)N3CC[C@@H](CF)C3)nc21", "note": "[Ex-214, (R)-(5-amino-7-methoxyimidazo[1,2-c]quinazolin-2-yl)(3-(fluoromethyl)pyrrolidin-1-yl)methanone]", "Ki": 11}, {"smiles": "COc1cccc2c1nc(N)n1cc(C(=O)c3ccccc3)nc21", "note": "[Ex-103, (5-amino-7-methoxyimidazo[1,2-c]quinazolin-2-yl)(phenyl)methanone]", "Ki": 26.4}, {"smiles": "Nc1nc2c(F)cccc2c2nc(Cc3cccc4c3CCN(CCc3ccccn3)C4)cn12", "note": "[Ex-57, 7-fluoro-2-((2-(2-(pyridin-2-yl)ethyl)-1,2,3,4-tetrahydroisoquinolin-5-yl)methyl)imidazo[1,2-c]quinazolin-5-amine]", "Ki": 18}, {"smiles": "CCN1CCN(Cc2cn3c(N)nc4c(F)cccc4c3n2)CC1", "note": "[Ex-112, 2-((4-ethylpiperazin-1-yl)methyl)-7-fluoroimidazo[1,2-c]quinazolin-5-amine]", "Ki": 520}, {"smiles": "COc1cccc2c1nc(N)n1cc(C(=O)N3CCC4(CC3)OCCC4(C)C)nc21", "note": "[Ex-234, (5-amino-7-methoxyimidazo[1,2-c]quinazolin-2-yl)(4,4-dimethyl-1-oxa-8-azaspiro[4.5]decan-8-yl)methanone]", "Ki": 2.6}, {"smiles": "COc1cccc2c1nc(N)n1cc(Cc3ccc(F)cc3)nc21", "note": "[Ex-21, 2-(4-fluorobenzyl)-7-methoxyimidazo[1,2-c]quinazolin-5-amine]", "Ki": 0.8}, {"smiles": "COc1cccc2c1nc(N)n1cc(C(=O)N3CCC4(CCOC4=O)CC3)nc21", "note": "[Ex-228, 8-(5-amino-7-methoxyimidazo[1,2-c]quinazoline-2-carbonyl)-2-oxa-8-azaspiro[4.5]decan-1-one]", "Ki": 180}, {"smiles": "Nc1nc2c(F)cccc2c2nc(C(=O)NCc3cccc4cccnc34)cn12", "note": "[Ex-163, 5-amino-7-fluoro-N-(quinolin-8-ylmethyl)imidazo[1,2-c]quinazoline-2-carboxamide]", "Ki": 12.8}, {"smiles": "Nc1nc2c(F)cccc2c2nc(Cc3ccccc3)cn12", "note": "[Ex-06, 2-benzyl-7-fluoroimidazo[1,2-c]quinazolin-5-amine]", "Ki": 0.9}, {"smiles": "Nc1nc2c(F)cccc2c2nc(CN3CCc4cc(NC(=O)c5ccccn5)ccc4C3)cn12", "note": "[Ex-127, N-(2-((5-amino-7-fluoroimidazo[1,2-c]quinazolin-2-yl)methyl)-1,2,3,4-tetrahydroisoquinolin-6-yl)picolinamide]", "Ki": 64}, {"smiles": "Nc1nc2c(F)cccc2c2nc(CN3CCOCC3)cn12", "note": "[Ex-115, 7-fluoro-2-(morpholinomethyl) imidazo[1,2-c] quinazolin-5-amine]", "Ki": 380}, {"smiles": "COc1cccc2c1nc(N)n1cc(Cc3c(Cl)cccc3Cl)nc21", "note": "[Ex-23, 2-(2,6-dichlorobenzyl)-7-methoxyimidazo[1,2-c]quinazolin-5-amine]", "Ki": 2.1}, {"smiles": "Nc1nc2c(F)cccc2c2nc(CNCc3ccc(F)cc3)cn12", "note": "[Ex-142]", "Ki": 130}, {"smiles": "COc1cccc2c1nc(N)n1cc(C(=O)N3CC[C@@H](OC)C3)nc21", "note": "[Ex-213, (R)-(5-amino-7-methoxyimidazo[1,2-c]quinazolin-2-yl)(3-methoxypyrrolidin-1-yl)methanone]", "Ki": 10}, {"smiles": "COc1cccc2c1nc(N)n1cc(C(=O)N3C(C)CCC3C)nc21", "note": "(centres unmarked) [Ex-210, (5-amino-7-methoxyimidazo[1,2-c]quinazolin-2-yl)(2,5-dimethylpyrrolidin-1-yl)methanone]", "Ki": 6.1}, {"smiles": "CC(c1ccc(-c2cccc(Cc3cn4c(N)nc5c(F)cccc5c4n3)c2)cc1)N1CCOCC1", "note": "(stereo not drawn) [Ex-75, 7-fluoro-2-((4′-(l-morpholinoethyl)-[1,1′-biphenyl]-3-yl)methyl)imidazo[1,2-c]quinazolin-5-amine]", "Ki": 6}, {"smiles": "COCCOc1ccc(N2CCN(c3ccccc3CNC(=O)c3cn4c(N)nc5c(F)cccc5c4n3)CC2)cc1", "note": "[Ex-253, 5-amino-7-fluoro-N-(2-(4-(4-(2-methoxyethoxy)phenyl)piperazin-1-yl)benzyl)imidazo[1,2-c]quinazoline-2-carboxamide]", "Ki": 3.7}, {"smiles": "COc1cccc2c1nc(N)n1cc(C(=O)N3CCOC[C@H]3C)nc21", "note": "[Ex-183, (R)-(5-amino-7-methoxyimidazo[1,2-c]quinazolin-2-yl)(3-methylmorpholino) methanone]", "Ki": 126}, {"smiles": "Nc1nc2c(OC(F)(F)F)cccc2c2nc(Cc3ccccc3)cn12", "note": "[Ex-10, 2-benzyl-7-(trifluoromethoxy)imidazo[1,2-c]quinazolin-5-amine]", "Ki": 6.2}, {"smiles": "CCCN1CCCC2(CCN(C(=O)c3cn4c(N)nc5c(F)cccc5c4n3)CC2)C1", "note": "[Ex-279, (5-amino-7-fluoroimidazo[1,2-c]quinazolin-2-yl)(2-propyl-2,9-diazaspiro[5.5]undecan-9-yl)methanone]", "Ki": 34}, {"smiles": "COc1cccc2c1nc(N)n1cc(Cc3ccccc3N(C)C)nc21", "note": "[Ex-20, 2-(2-(dimethylamino)benzyl)-7-methoxyimidazo[1,2-c]quinazolin-5-amine]", "Ki": 1.4}, {"smiles": "COc1cccc2c1nc(N)n1cc(C(=O)N3CCC(F)(F)C3)nc21", "note": "[Ex-221, (5-amino-7-methoxyimidazo[1,2-c]quinazolin-2-yl)(3,3-difluoropyrrolidin-1-yl)methanone]", "Ki": 6.6}, {"smiles": "Nc1nc2c(F)cccc2c2nc(C(=O)N3CCc4cc(-c5cncnc5)ccc4C3)cn12", "note": "[Ex-287, (5-amino-7-fluoroimidazo[1,2-c]quinazolin-2-yl)(6-(pyrimidin-5-yl)-3,4-dihydroisoquinolin-2(1H)-yl)methanone]", "Ki": 35}, {"smiles": "COc1cccc2c1nc(N)n1cc(C(=O)N3CC4CC3CS(=O)(=O)C4)nc21", "note": "(centres unmarked) [Ex-237, (5-amino-7-methoxyimidazo[1,2-c]quinazolin-2-yl)(3,3-dioxido-3-thia-6-azabicyclo[3.2.1]octan-6-yl)methanone]", "Ki": 37}, {"smiles": "CC(C)(C)OC(=O)N1CCC2(CCN(C(=O)c3cn4c(N)nc5c(F)cccc5c4n3)CC2)C1", "note": "[Ex-262, tert-butyl 8-(5-amino-7-fluoroimidazo[1,2-c]quinazoline-2-carbonyl)-2,8-diazaspiro[4.5]decane-2-carboxylate]", "Ki": 53}, {"smiles": "Nc1nc2c(F)cccc2c2nc(-c3ccccc3CO)cn12", "note": "[Ex-107, (2-(5-amino-7-fluoroimidazo[1,2-c]quinazolin-2-yl)phenyl)methanol]", "Ki": 4.3}, {"smiles": "Nc1nc2c(F)cccc2c2nc(CC3CCN(C(=O)OCc4ccccc4)CC3)cn12", "note": "[Ex-316, benzyl 4-((5-amino-7-fluoroimidazo[1,2-c]quinazolin-2-yl)-methyl)piperidine-1-carboxylate]", "Ki": 30}]}]}
